Here are results for one compound from ChEMBL document CHEMBL3108750, “Solution structure of a sponge-derived cystine knot peptide and its notable stability” (J Nat Prod, 2014).

Positions of bridges follow the written chain, without caps; N, C: chain ends. Residues, ends and D or L forms follow the SMILES beside them.

Series [1] is described as follows: Cytotoxicity against human HK2 cells assessed as cell viability up to 50 uM after 48 hrs by MTT assay. It is filed as cell-based. The settings on record: hk-2, 48 h. On the technique in general: Tetrazolium assays rely on reduction of a dye to a coloured formazan, in cell work by metabolically active cells.
Series [2] is described as follows: Cytotoxicity against human MCF10A cells assessed as cell viability up to 50 uM after 48 hrs by MTT assay. The settings on record: mcf-10a. It is filed as cell-based.

As to `CC[C@H](C)[C@H](NC(=O)[C@@H](NC(=O)[C@H](Cc1ccc(O)cc1)NC(=O)[C@@H]1CSSC[C@@H]2NC(=O)[C@@H]3CCCN3C(=O)[C@H](CC(N)=O)NC(=O)[C@H](Cc3ccccc3)NC(=O)[C@H](CCC(=O)O)NC(=O)[C@H](C(C)C)NC(=O)[C@H](CC(=O)O)NC(=O)[C@@H]3CSSC[C@H](NC(=O)[C@H]([C@@H](C)O)NC(=O)[C@H](CC(C)C)NC(=O)[C@@H]4CCCN4C(=O)[C@@H]4CCCN4C(=O)[C@H](CSSC[C@H](N)C(=O)N4CCC[C@H]4C(=O)NCC(=O)N[C@@H](CCC(=O)O)C(=O)NCC(=O)N[C@@H](CCC(=O)O)C(=O)N[C@@H](CCC(N)=O)C(=O)N3)NC2=O)C(=O)N[C@@H]([C@@H](C)CC)C(=O)N2CCC[C@H]2C(=O)NCC(=O)N[C@@H](CC(=O)O)C(=O)N2CCC[C@H]2C(=O)N[C@@H](Cc2ccc(O)cc2)C(=O)NCC(=O)N[C@@H]([C@@H](C)CC)C(=O)N1)[C@@H](C)CC)C(=O)O` (H-CPGEGEQCDVEFNPCCPPLTCIPGDPYGICYII-OH; disulfide 1-16, 8-21, 15-30), the Activity entry in series [1] and in series [2] was “Non-toxic” throughout.
